In US20100179173A1, “SUBSTITUTED FUSED PYRIMIDINES AS ANTAGONISTS OF GPR105 ACTIVITY” (priority 2007, published 2010):

biological target: T1, chimpanzee GPR105 protein (Pan troglodytes, UniProt A0A2J8P2M1); assay: Cell-Binding Assay: inhibition of UDP-glucose-induced Ca2+ signaling (FLIPR) in HEK/GPR105/Gqi5 cells; format: cell-based; settings: HEK cells expressing chimpanzee GPR105 and Gqi5, UDP-glucose agonist at EC80
T1 construct: expressed in transfected cells
T1 sequence (A0A2J8P2M1 1-338): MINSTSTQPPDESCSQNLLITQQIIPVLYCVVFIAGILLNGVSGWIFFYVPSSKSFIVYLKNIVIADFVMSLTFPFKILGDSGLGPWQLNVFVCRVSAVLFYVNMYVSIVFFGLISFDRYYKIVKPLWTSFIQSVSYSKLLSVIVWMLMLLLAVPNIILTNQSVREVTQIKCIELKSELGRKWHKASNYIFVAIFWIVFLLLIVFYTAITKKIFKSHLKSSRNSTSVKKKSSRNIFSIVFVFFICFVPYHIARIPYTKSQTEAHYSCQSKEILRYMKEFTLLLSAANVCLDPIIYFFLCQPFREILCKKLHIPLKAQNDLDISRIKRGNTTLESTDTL
Procedure: A stable HEK clonal cell line expressing the chimpanzee GPR105 protein and the chimeric G protein Gqi5 was developed. The chimeric Gqi5 forces the coupling of GPR105 through the Gq (calcium) pathway and allows for monitoring of calcium signaling using a calcium binding fluorescent dye and the FLIPR (fluorometric imaging plate reader, MDS Sciex). […] Cells were incubated overnight at 37° C. and 5% CO2 to form a monolayer. On the following day, 30 μL of fluorescent no-wash dye was added to the cell monolayer and the plate was incubated for 60 min at 37° C., 5% CO2. […] of compound in 100% DMSO was added to cell/dye incubation using acoustic dispensing (Echo™, Labcyte). Following a 20 minute incubation of compound at room temperature, 6.25 μL of UDP-glucose agonist (at EC80) in Hank's Balanced Salt Solution (HBSS) containing 20 mM Hepes was added to cells and Ca^2+ signaling was monitored by FLIPR. Quantitation of the % inhibition of Ca^2+ signaling by antagonist was calculated using the maximum fluorescent signal detected. IC50's for the compounds of structural formula (I) were calculated as follows: […]

Structure (SMILES) | IC50
CCc1cc(NC(=O)N2CCc3nc(-c4cccnc4)nc(-c4ccccc4C)c3C2)cc(-c2ccc(C(=O)O)cc2)c1 | 4 nM
CCc1cc(Cl)cc(NC(=O)N2CCc3nc(-c4cncnc4)nc(-c4ccccc4C)c3C2)c1 | 10.5 nM
CCc1cccc(NC(=O)N2CCc3nc(-c4ccnc(F)c4)nc(-c4ccccc4C)c3C2)c1 | 12 nM
CCc1cccc(NC(=O)N2CCc3nc(-c4cscc4C)nc(-c4ccccc4C)c3C2)c1 | 65.1 nM
CCc1cc(NC(=O)N2CCc3nc(-c4cccnc4)nc(-c4ccccc4C)c3C2)cc(-c2cn(C)cn2)c1 | 5.6 nM
CCc1cccc(NC(=O)N2CCc3nc(-c4ccc(C#N)nc4)nc(-c4ccccc4C)c3C2)c1 | 7.8 nM
CCc1cc(NC(=O)N2CCc3nc(-c4cccnc4)nc(-c4ccccc4C)c3C2)cc(Oc2ccccc2)c1 | 8.1 nM
CCc1cncc(NC(=O)N2CCc3nc(-c4cccnc4)nc(-c4ccccc4C)c3C2)c1 | 55.7 nM
CCc1cccc(NC(=O)N2CCc3nc(-c4ccnn4C)nc(-c4ccccc4C)c3C2)c1 | 34.5 nM
Cc1ccccc1-c1nc(-c2cccnc2)nc2c1CN(C(=O)Nc1cccc(-c3ccc(C(N)=O)cc3)c1)CC2 | 18.4 nM
